# Earlier results, collected in patent US20080187998A1, “Sulfonamide-based oligomers and polymers for destabilization of biological membranes” (UNIVERSITY OF UTAH RESEARCH FOUNDATION, priority 2007, published 2008).
# Conditions: monomeric sulfonamide
row,pKa,SMILES
1,6.1,"COc1cc(NS(=O)(=O)c2ccc(N)cc2)nc(OC)n1 [SDM, sulfadimethoxine]"
2,6.4-6.5,"Nc1ccc(S(=O)(=O)Nc2ncccn2)cc1 [SDZ, sulfadiazine]"
3,5.45,"Cc1nnc(NS(=O)(=O)c2ccc(N)cc2)s1 [SMT, sulfamethizole]"
4,7.0,Cc1ccnc(NS(=O)(=O)c2ccc(N)cc2)n1 [sulfamerazine]
